# Results from publication PMC6754136 (PLoS ONE, 2019).
# “Also recorded” adds a separate entry of the source. Where two headings read alike, the source gives them in different places.
# How the values were obtained:
# [1] = biological target: purified recombinant human PDE5 (Homo sapiens, UniProt O76074); assay: in vitro PDE5 inhibition assay measuring GMP production from cGMP (HPLC-UV-MS); type: biochemical; details: for Fold improved potency (fold change in IC50 compared to icariin): relative to icariin; for fold increase in potency compared to the corresponding unglycosylated analog: 3 vs 6, 5 vs 8
# Experimental: STRENDA guidelines were considered in the description of the following enzyme activity assays. PDE5 inhibition and kinetics assays were carried out according to the method of Kincaid and Manganiello [31] and Dell’Agli et al. 1 nM recombinant human PDE5 (catalytic domain consisting of amino acids 537–875, Abcam, ab125581) was pre-incubated with PDE5 inhibitors (synthesized in-house as described above or purchased from Selleck Chemicals) in 40 mM tris-hydrochloric acid, pH 7.8, containing 10 mM MgCl2. […]. PDE5 inhibitors were added to each reaction using a Hewlett-Packard D300 Digital Dispenser (Tecan). Maximum DMSO concentration was 0.1% of the final reaction volume for all samples. After incubation at 25 °C for 5 minutes to allow interaction between PDE5 and drugs, the reaction was started with the addition of 0.3 μM cGMP (Enzo Life Sciences, Inc.) and incubated at 25 °C for 15 minutes. The final reaction volume was 100 μL. Reactions were stopped with the addition of 100 μL of 0.1 M HCl and neutralized by adding 0.1 M NaOH until the pH was 7. […] The amount of GMP produced was measured by HPLC-UV-MS as described in the general procedures. Reaction mixture components were separated with a ramp gradient of solvent A and B run at a flow rate of 0.5 mL/min as follows: 0–4 minutes 0% B, 4–7 minutes 0–95% B, 7–8 minutes 95% B, 8–11.1 minutes 0% B. GMP was measured using selected reaction monitoring in positive mode for a centroid center mass of 152.
# A calibration curve using known concentrations of GMP was generated using the HPLC-UV-MS method described above to quantify the absolute amount of GMP in each reaction (S13 Fig). The linear range was from 5.9 nM to 3 μM. The limit of detection (LOD), defined as the lowest concentration producing a detectable peak above background, was 0.1 nM. The lower limit of quantification (LLOQ), defined as the lowest concentration used to generate a standard curve with r^2 > 0.95, was 5.9 nM. The upper limit of quantification (ULOQ), defined as the highest concentration used to generate a standard curve with r^2 > 0.95, was 3 μM. A GMP calibration curve was generated with each individual run of the HPLC-UV-MS.
# To measure the IC50 as a result of treatment with each icariin analog, the in vitro inhibition enzyme assay as described above was performed, and GMP levels were normalized to no-drug controls and multiplied by 100 to obtain the percent PDE5 activity. IC50 mean ± SEM values were determined by nonlinear-regression fitting of the percent PDE5 activity data using the [inhibitor] vs response–variable slope (four parameters) equation in Prism (version 7.0a and version 8). Top value was constrained to 100, all other parameters were unconstrained. To obtain the dose-response curves for visual confirmation of the best-fit line, we executed a nonlinear regression fitting using the log(inhibitor) vs. response—variable slope (four parameters) equation in Prism. […] AICc analysis (built into Prism) was used to confirm the best-fitting inhibition model. […] Inhibition models were also compared via visual inspection of the fit of the calculated curves on the Michaelis-Menten plots.
# [2] = mitochondrial viability assay with resazurin; type: cell-based, human; details: human, 0.01–10 μM; for viability at 3 days: marked reduction in at least one cell line; for viability at 3 days, 10 μM: four cell lines, even at the highest concentration tested (10 μM)
# Experimental: The human cell lines SH-SY5Y (SY5Y, ATCC CRL-2266), SK-MEL-5 (SKMEL-5, ATCC HTB-70), and NCI-H187 (H187, ATCC CRL-5804) were cultured in RPMI medium supplemented with 10% FBS and no antibiotics. These three cell lines were generously provided by the laboratory of Susan Lindquist via Luke Whitesell (currently at the University of Toronto, Toronto, ON, Canada). BJ-hTERT (described in [27], generously provided by Robert Weinberg, Whitehead Institute, Cambridge MA, USA) was cultured in 4:1 DMEM:M199 medium supplemented with 15% FBS and no antibiotics. All cell lines were grown and assayed at 37 °C, 5% CO2. All cell lines were screened for mycoplasma contamination by PCR (Mycoscope Detection Kit, Fisher Scientific) before use in assays.
# For viability assays, cells were plated in black, clear bottom 384-well tissue culture-treated plates (Corning) and incubated overnight in the media described above but supplemented with 50 U/mL penicillin-streptomycin antibiotic (Life Technologies). Then, DMSO (no drug controls) and PDE5 inhibitors (0.01–10 μM; synthesized as described above or purchased from Selleck Chemicals) were added using a Hewlett-Packard D300 Digital Dispenser (Tecan) and incubated for 3 days. Maximum DMSO concentration was normalized to 0.1% of the total well volume for all wells. Resazurin (R & D Systems) was diluted 1:20 into each well and incubated for up to 4 hours. Fluorescence was read in a Tecan plate reader (excitation = 570 nm, emission = 585 nm). Wells treated with PDE5 inhibitors were normalized against control wells treated with DMSO to measure percent mitochondrial viability (100 = no effect on mitochondrial viability).
# recombinant human PDE5 = recombinant human PDE5 (Homo sapiens, UniProt O76074); assay: in vitro PDE5 kinetics assay (nonlinear regression, AICc model comparison); type: biochemical
# Experimental: guidelines were considered in the description of the following enzyme activity assays. […] For kinetics assays, 0.015, 0.05, and 0.2 μM of compounds 3 and 7 were used. […] Maximum DMSO concentration was 0.1% of the final reaction volume for all samples. […] The final reaction volume was 100 μL. Reactions were stopped with the addition of 100 μL of 0.1 M HCl and neutralized by adding 0.1 M NaOH until the pH was 7. […] Reaction mixture components were separated with a ramp gradient of solvent A and B run at a flow rate of 0.5 mL/min as follows: 0-4 minutes 0% B, 4-7 minutes 0-95% B, 7-8 minutes 95% B, 8-11.1 minutes 0% B. GMP was measured using selected reaction monitoring in positive mode for a centroid center mass of 152. […] Top value was constrained to 100, all other parameters were unconstrained. To obtain the dose-response curves for visual confirmation of the best-fit line, we executed a nonlinear regression fitting using the log(inhibitor) vs. response-variable slope (four parameters) equation in Prism. […] AICc analysis (built into Prism) was used to confirm the best-fitting inhibition model. […] Inhibition models were also compared via visual inspection of the fit of the calculated curves on the Michaelis-Menten plots.
# [3] = biological target: T1, partially purified recombinant human PDE6C (Homo sapiens, UniProt P51160); assay: PDE6C inhibition assay (GMP production); type: biochemical
# T1 construct: partially purified recombinant full-length human PDE6C; purchased SB Drug Discovery; host or cells: insect cells
# Experimental: PDE6C inhibition was measured using the same method as described for PDE5 with modifications. […] The final reaction volume was 50 μL. […] Reactions were stopped as described above for PDE5 enzyme assays, and GMP was quantified as described above. […] The amount of GMP produced in these samples was subtracted from all samples before normalizing against untreated controls.
# BJ-hTERT cells = assay: cellular GMP levels after inhibitor treatment; type: cell-based, human; details: 20 μM inhibitor, 1 hour; mean ± SEM; p<0.001
# Experimental: For assaying PDE5 inhibitor effects on GMP levels in a cell line, BJ-hTERT cells were plated in 6-well plates (Corning) in the media described above. When cells were 80% confluent, fresh, pre-warmed media with DMSO (untreated controls) or 20 μM sildenafil, 3, or 7 was added and incubated for 1 hour. Maximum DMSO concentration in all samples was 0.2% of the total well volume. Cells were washed once with cold 0.9% NaCl. 800 μL of 80:20 methanol:water spiked with 500 nM isotopically labeled amino acids as internal standards was added while cells were on dry ice. Cells were detached with a cell scraper. Extracts were vortexed for 10 minutes and centrifuged at maximum speed at 4 °C to remove debris. Extracts were dried down in a vacuum dryer and stored at -80 °C. An additional sample was reserved for visual inspection of cell health by confocal light microscopy and for cell counting with a hemocytometer. Three independent assays were conducted in total, with 1–2 replicates per assay. To analyze GMP levels, samples were reconstituted in 50 μL LC-MS grade water and analyzed by HPLC-UV-MS as described in the general procedures and for enzyme inhibition and kinetics assays. The amino acid standards were analyzed in full scan positive mode with mass windows m/z 50–800. GMP peak areas were normalized to the peak area of the internal standard ^13C4, ^15N-threonine or ^13C6, ^15N3-histidine to account for variations in extraction or resuspension volume. The peak areas were then normalized to the average GMP peak area in undrugged controls and multiplied by 100 to obtain the percent GMP.
# bovine trypsin = biological target: T2, bovine trypsin (Bos taurus, UniProt P00760); assay: PAINS assay: non-specific inhibition of trypsin; type: biochemical; details: 1x and 10x the PDE5 IC50 (3 and 7 also 50x, 250x); luteolin 50, 100, 250 μM
# T2 construct: purchased Sigma-Aldrich T1426
# T2 sequence (P00760 24-246): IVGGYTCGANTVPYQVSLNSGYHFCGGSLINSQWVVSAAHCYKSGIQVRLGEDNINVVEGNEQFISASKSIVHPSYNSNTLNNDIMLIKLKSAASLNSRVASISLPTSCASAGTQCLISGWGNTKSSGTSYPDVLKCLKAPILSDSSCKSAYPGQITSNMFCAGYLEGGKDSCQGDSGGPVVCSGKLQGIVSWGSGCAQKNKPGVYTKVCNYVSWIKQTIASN
# Experimental: In assay buffer (50 mM Tris-HCl, 20 mM CaCl2, pH 8.19 with or without 0.5% igepal), 0.002 mg freshly made trypsin is incubated with drugs for 5 minutes at 25 °C. 1 mM of substrate (Nα-benzoyl-L-arginine 4-nitroanilide hydrochloride, Sigma-Aldrich, B3133) is added to start the reaction. Final reaction volume is 100 μl. Product formation is monitored by increasing absorbance at 410 nm at 25 °C for 30 minutes in kinetic mode using a SpectraMax M5 plate reader (Molecular Devices). All values were measured in duplicate.
# human PDE5 = details: PDE5, competitive inhibitors; cited from earlier work
# [4] = 1 nM PDE5 catalytic domain, 0.3 μM cGMP, 25 °C, 15 min, mean of at least three replicates ± SEM, read-out: IC50
# T1 sequence (P51160 whole entry): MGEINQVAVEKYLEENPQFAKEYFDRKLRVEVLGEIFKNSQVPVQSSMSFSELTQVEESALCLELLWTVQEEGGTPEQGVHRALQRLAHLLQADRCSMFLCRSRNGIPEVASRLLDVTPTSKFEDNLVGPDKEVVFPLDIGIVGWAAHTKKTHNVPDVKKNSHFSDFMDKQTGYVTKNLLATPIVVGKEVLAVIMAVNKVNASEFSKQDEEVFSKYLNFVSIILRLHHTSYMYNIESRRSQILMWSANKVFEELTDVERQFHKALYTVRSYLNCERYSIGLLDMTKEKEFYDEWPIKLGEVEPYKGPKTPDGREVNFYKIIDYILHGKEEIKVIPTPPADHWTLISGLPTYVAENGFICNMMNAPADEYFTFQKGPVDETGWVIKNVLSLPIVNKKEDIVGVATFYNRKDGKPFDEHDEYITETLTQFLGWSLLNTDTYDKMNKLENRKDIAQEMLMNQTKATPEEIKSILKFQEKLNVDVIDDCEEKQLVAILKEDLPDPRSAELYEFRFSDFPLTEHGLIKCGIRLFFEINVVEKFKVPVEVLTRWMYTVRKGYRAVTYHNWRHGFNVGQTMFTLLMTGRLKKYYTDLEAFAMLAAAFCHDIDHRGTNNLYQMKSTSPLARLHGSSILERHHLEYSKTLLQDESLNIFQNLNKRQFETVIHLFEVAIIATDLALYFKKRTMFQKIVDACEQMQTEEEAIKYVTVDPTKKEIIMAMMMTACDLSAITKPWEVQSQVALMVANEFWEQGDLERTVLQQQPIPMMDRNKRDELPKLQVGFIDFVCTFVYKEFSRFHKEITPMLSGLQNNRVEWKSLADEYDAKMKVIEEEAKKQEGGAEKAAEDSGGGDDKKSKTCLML
compound,measurement,setting,value
"COc1ccc(-c2oc3c(CC=C(C)C)c(O[C@@H]4O[C@H](CO)[C@@H](O)[C@H](O)[C@H]4O)cc(O)c3c(=O)c2O)cc1 [Compound 2, Icariside I]",IC50,[1]; [4],2100 ± 800 nM
same,Fold improved potency (fold change in IC50 compared to icariin),[1],3 fold
same,viability at 3 days,[2],≤ 70%
"COc1ccc(-c2oc3c(CC=C(C)C)c(OC4OC(CO)C(O)C(O)C4O)cc(O)c3c(=O)c2OCCO)cc1 (stereo not shown) [Compound 3, 3-O-(2-Hydroxyethyl)-Icariside I]",fold increase in potency compared to the corresponding unglycosylated analog,[1],5 fold
same,Preferred model,recombinant human PDE5; AICc comparison of competitive vs noncompetitive inhibition,Competitive inhibition
same,Preferred model,recombinant human PDE5; AICc comparison of competitive vs uncompetitive inhibition,Competitive inhibition
same,probability that the competitive inhibition model is correct,"recombinant human PDE5; AICc, compared to a noncompetitive or uncompetitive model",> 99%
same,Probability it is correct (competitive inhibition),"recombinant human PDE5; AICc, competitive vs noncompetitive inhibition",99.97%
same,Probability it is correct (competitive inhibition),"recombinant human PDE5; AICc, competitive vs uncompetitive inhibition",>99.99%
same,mode of inhibition,recombinant human PDE5; Lineweaver-Burk plot and AICc analysis,competitive inhibitor; also recorded: inhibits PDE5 competitively
same,specificity for PDE5 over PDE6C,[3],shows specificity for PDE5 over PDE6C
same,"PDE6C inhibition, statistical significance","[3]; at 50x the PDE5 IC50, vs theoretical uninhibited mean of 100%",do not show any statistically significant PDE6C inhibition
same,"viability at 3 days, 10 μM",[2],> 70%
same,"cellular GMP concentration, % of the GMP concentration in untreated control cells",BJ-hTERT cells,9 ± 0.6%
"COc1ccc(-c2oc3c(CC=C(C)C)c(OC4OC(CO)C(O)C(O)C4O)cc(O)c3c(=O)c2OCCCO)cc1 (stereo not shown) [Compound 4, 3-O-(3-Hydroxypropyl)-Icariside I]",IC50,[1]; [4],800 ± 500 nM
same,fold decrease in potency compared to the corresponding unglycosylated compound 7,[1]; 4 vs 7,6 fold
same,Fold improved potency (fold change in IC50 compared to icariin),[1],8 fold
same,viability at 3 days,[2],≤ 70%
"COc1ccc(-c2oc3c(CC=C(C)C)c(OC4OC(CO)C(O)C(O)C4O)cc(O)c3c(=O)c2OCC(C)O)cc1 (stereo not shown) [Compound 5, 3-O-(2-Hydroxypropyl)-Icariside I]",fold increase in potency compared to the corresponding unglycosylated analog,[1],3 fold
same,Fold improved potency (fold change in IC50 compared to icariin),[1],12 fold
same,"viability at 3 days, 10 μM",[2],> 70%
"COc1ccc(-c2oc3c(CC=C(C)C)c(O)cc(O)c3c(=O)c2OCC(C)O)cc1 (stereo not shown) [Compound 8, 3-O-(2-Hydroxypropyl)-Icaritin]",IC50,[1]; [4],1500 ± 600 nM
same,Fold improved potency (fold change in IC50 compared to icariin),[1],4 fold
"COc1ccc(-c2oc3c(CC=C(C)C)c(O)cc(O)c3c(=O)c2O)cc1 [Compound 9, Icaritin]",IC50,[1],1800 ± 800 nM
same,Fold improved potency (fold change in IC50 compared to icariin),[1],3 fold
same,inhibition of trypsin activity,bovine trypsin,statistically significant inhibition of trypsin activity (p<0.05)
"O=c1cc(-c2ccc(O)c(O)c2)oc2cc(O)cc(O)c12 [luteolin, reference compound]",inhibition of trypsin activity,bovine trypsin,statistically significant inhibition of trypsin activity (p<0.001)
